{"source": "patent US20140163100A1", "about": "“Methods of Treating Multiple Sclerosis and Preserving and/or Increasing Myelin Content” (BIOGEN IDEC MA INC., priority 2011, published 2014)", "key": {"[1]": {"tested_on": "subjects with relapsing-remitting multiple sclerosis", "assay": "First Phase 3 clinical trial: quality of life (SF-36, VAS)", "assay_type": "in vivo, human", "settings": "for mean SF-36 PCS score: at 2 years (placebo 42.0); for SF-36 Mental Component Scale score: at 2 years (placebo 44.6); for mean VAS score (global impression of well-being): at 2 years (placebo 60.3)", "protocol": "Subjects participating in the study described in Example 1 were provided an SF-36 questionnaire to measure the subjects' health status and health-related quality of life (“QoL”) at baseline, 6, 12, and 24 months, on eight multi-item, 100-point scales, with higher scores indicating higher QoL. These scores were used to calculate the Physical Component Summary (“PCS”) and Mental Component Summary (“MCS”) scores. In addition, the subjects' global impression of well-being was assessed at baseline and every 3 months using a 100-point, visual analogue scale (VAS) with higher score indicating improvement in well-being."}, "[2]": {"tested_on": "subjects with relapsing-remitting multiple sclerosis", "assay": "First Phase 3 clinical trial: relapse and disability efficacy", "assay_type": "in vivo, human", "settings": "for reduction of ARR vs placebo / reduction of risk of confirmed, 12-week disability progression: 2 years; for annualized relapse rate (ARR): 2 years (placebo 0.36); for reduction of risk of confirmed, 12-week disability progression: EDSS; for reduction of proportion of subjects relapsing compared with placebo: at 2 years", "protocol": "The primary endpoint of the study in Example 1 was the proportion of subjects relapsing at 2 years, with relapses confirmed by an independent neurology evaluation committee (“INEC”) to ensure consistent and accurate reporting across sites. Secondary clinical efficacy endpoints at 2 years were the annualized relapse rate (“ARR”) and disability progression using EDSS. Efficacy analyses were conducted on the intention-to-treat population."}, "[3]": {"tested_on": "subjects with relapsing-remitting multiple sclerosis", "assay": "First Phase 3 clinical trial: magnetization transfer ratio (MTR) substudy", "assay_type": "in vivo, human", "description": "The study described in Example 1 included a substudy to examine change in magnetization transfer ratio (“MTR”) with treatment. MTR imaging has been proposed for use as a biomarker of changes in the myelin content of brain white matter. The aim of the study was to determine change in brain and lesion MTR in RR-MS. MTR scans were obtained in a subset of subjects at baseline and 6, 12 and 24 months, using manufacturer-supplied MT pulse sequences. MTR substudies were implemented at 64 of 76 MRI sites (84%) and included a total of 540 subjects: 176 in the dimethyl fumarate 240 mg bid group, 184 in the dimethyl fumarate 240 mg tid group, and 180 in the placebo group."}, "[4]": {"tested_on": "subjects with relapsing-remitting multiple sclerosis", "assay": "First Phase 3 clinical trial: MRI lesion loads", "assay_type": "in vivo, human", "settings": "2 years", "protocol": "Subjects from 76 sites out of 198 participating in the study described in Example 1 had MRI scans at baseline, 24 weeks, 1 year and 2 years. Number of new or newly enlarging T2 lesions and number of gadolinium-enhancing (Gd+) lesions at 2 years were secondary endpoints of the study. Analyses were conducted on the MRI intention-to-treat population."}, "[5]": {"tested_on": "mouse MS model", "assay": "Mouse MS model, neuroprotective effects", "assay_type": "in vivo", "settings": "mouse MS model with features of advanced stages of chronic forms of MS", "description": "Although many well characterized rodent and primate models for MS exist, only recently have the characteristic features of progressive MS been identified in select animal models."}, "[6]": {"assay": "First Phase 3 clinical trial: safety and tolerability (adverse events)", "assay_type": "in vivo, human", "protocol": "Safety and tolerability were assessed by continuous adverse event (“AE”) monitoring and laboratory tests at all monthly visits. Additionally, physical examination, vital signs, and 12-lead ECG were evaluated. As an ethical consideration, subjects' reconsent was required following any protocol-defined disability progression or relapse."}, "[7]": {"settings": "human, in vivo"}}, "note": "Counter-ions that a name gives are not always drawn. Like-named read-outs stand apart in the source and are kept apart here."}
{"smiles": "COC(=O)/C=C/C(=O)OC", "note": "[dimethyl fumarate]", "values": [{"measurement": "mean SF-36 PCS score", "setting": "[1]; 240 mg BID", "value": 43.4}, {"measurement": "SF-36 Mental Component Scale score", "setting": "[1]; 240 mg BID", "value": 45.5}, {"measurement": "mean VAS score (global impression of well-being)", "setting": "[1]; 240 mg BID", "value": 64.3}, {"measurement": "mean SF-36 PCS score", "setting": "[1]; TID", "value": 44.2}, {"measurement": "SF-36 Mental Component Scale score", "setting": "[1]; TID", "value": 46.1}, {"measurement": "mean VAS score (global impression of well-being)", "setting": "[1]; TID", "value": 65.7}, {"measurement": "reduction of ARR vs placebo", "setting": "[2]; 240 mg BID", "value": 53, "unit": "%"}, {"measurement": "annualized relapse rate (ARR)", "setting": "[2]; 240 mg BID", "value": 0.17}, {"measurement": "reduction of risk of confirmed, 12-week disability progression", "setting": "[2]; 240 mg BID", "value": 38, "unit": "%"}, {"measurement": "Annualized relapse rate at 2 years, % Reduction vs. Placebo", "setting": "[2]; 240 mg BID, <40 years", "value": 63, "unit": "%"}, {"measurement": "Proportion of patients relapsed at 2 years, % Reduction vs. Placebo", "setting": "[2]; 240 mg BID, <40 years", "value": 59, "unit": "%"}, {"measurement": "Time to confirmed disability progression at 2 years, % Reduction vs. Placebo", "setting": "[2]; 240 mg BID, <40 years", "value": 62, "unit": "%"}, {"measurement": "reduction of proportion of subjects relapsing compared with placebo", "setting": "[2]; 240 mg BID", "value": 49, "unit": "%"}, {"measurement": "Annualized relapse rate at 2 years, % Reduction vs. Placebo", "setting": "[2]; 240 mg BID, ≧40 years", "value": 34, "unit": "%"}, {"measurement": "Proportion of patients relapsed at 2 years, % Reduction vs. Placebo", "setting": "[2]; 240 mg BID, ≧40 years", "value": 26, "unit": "%"}, {"measurement": "Time to confirmed disability progression at 2 years, % Reduction vs. Placebo", "setting": "[2]; 240 mg BID, ≧40 years", "value": 8, "unit": "%"}, {"measurement": "Annualized relapse rate at 2 years, % Reduction vs. Placebo", "setting": "[2]; 240 mg TID, <40 years", "value": 59, "unit": "%"}, {"measurement": "Proportion of patients relapsed at 2 years, % Reduction vs. Placebo", "setting": "[2]; 240 mg TID, <40 years", "value": 56, "unit": "%"}, {"measurement": "Time to confirmed disability progression at 2 years, % Reduction vs. Placebo", "setting": "[2]; 240 mg TID, <40 years", "value": 38, "unit": "%"}, {"measurement": "Annualized relapse rate at 2 years, % Reduction vs. Placebo", "setting": "[2]; 240 mg TID, ≧40 years", "value": 29, "unit": "%"}, {"measurement": "Proportion of patients relapsed at 2 years, % Reduction vs. Placebo", "setting": "[2]; 240 mg TID, ≧40 years", "value": 37, "unit": "%"}, {"measurement": "Time to confirmed disability progression at 2 years, % Reduction vs. Placebo", "setting": "[2]; 240 mg TID, ≧40 years", "value": 32, "unit": "%"}, {"measurement": "reduction of ARR vs placebo", "setting": "[2]; TID", "value": 48, "unit": "%"}, {"measurement": "annualized relapse rate (ARR)", "setting": "[2]; TID", "value": 0.19}, {"measurement": "reduction of risk of confirmed, 12-week disability progression", "setting": "[2]; TID", "value": "approximately 34%"}, {"measurement": "reduction of proportion of subjects relapsing compared with placebo", "setting": "[2]; TID", "value": 50, "unit": "%"}, {"measurement": "efficacy by age subgroup", "setting": "[2]; subjects under 40 years vs 40 years or older, 240 mg BID and TID", "value": "more efficacious in subjects under 40 years of age"}, {"measurement": "increase from baseline in whole brain MTR", "setting": "[3]; 240 mg bid (placebo −0.386%)", "value": 0.129, "unit": "%"}, {"measurement": "increase from baseline in normal appearing brain tissue MTR", "setting": "[3]; 240 mg bid (placebo −0.392%)", "value": 0.190, "unit": "%"}, {"measurement": "increase from baseline in whole brain MTR", "setting": "[3]; 240 mg tid (placebo −0.386%)", "value": 0.096, "unit": "%"}, {"measurement": "increase from baseline in normal appearing brain tissue MTR", "setting": "[3]; 240 mg tid (placebo −0.392%)", "value": 0.115, "unit": "%"}, {"measurement": "reduction of mean number of Gd+ lesions compared with placebo", "setting": "[4]; 240 mg BID", "value": 94, "unit": "%"}, {"measurement": "reduction of mean number of new or newly enlarging T2 lesions compared with placebo", "setting": "[4]; 240 mg BID", "value": 85, "unit": "%"}, {"measurement": "reduction of mean number of Gd+ lesions compared with placebo", "setting": "[4]; TID", "value": 72, "unit": "%"}, {"measurement": "reduction of mean number of new or newly enlarging T2 lesions compared with placebo", "setting": "[4]; TID", "value": 74, "unit": "%"}, {"measurement": "neuroprotective effects", "setting": "[5]", "value": "reduction in demyelination and axonal damage"}, {"measurement": "deaths", "setting": "[6]; dimethyl fumarate TID arm, result of a motor vehicle accident", "value": "One death"}, {"measurement": "MS relapse reported as AE", "setting": "[6]; human, in vivo", "value": 27, "unit": "%"}, {"measurement": "opportunistic infections", "setting": "[6]; human, in vivo", "value": "no opportunistic infections were observed"}, {"measurement": "AEs reported by subjects", "setting": "[6]; human, in vivo, 2 years", "value": 95, "unit": "%"}, {"measurement": "Incidence of infections and infestations", "setting": "[6]; human, in vivo, 2 years", "value": "64-68%"}, {"measurement": "Incidence of severe infections and infestations", "setting": "[6]; human, in vivo, 2 years", "value": "2-3%"}, {"measurement": "Severe AEs reported", "setting": "[6]; human, in vivo, 2 years", "value": 17, "unit": "%"}, {"measurement": "subjects discontinuing treatment due to AEs (number)", "setting": "[6]; human, in vivo, 2 years", "value": 68}, {"measurement": "subjects discontinuing treatment due to AEs (percent)", "setting": "[6]; human, in vivo, 2 years", "value": 16, "unit": "%"}, {"measurement": "subjects reporting flushing", "setting": "[6]; human, in vivo, 2 years", "value": 32, "unit": "%"}, {"measurement": "subjects withdrew from the study", "setting": "[6]; human, in vivo, 2 years", "value": "approximately 23%"}, {"measurement": "most frequently reported AEs associated with dimethyl fumarate", "setting": "[7]", "value": "flushing, diarrhea, nausea, upper respiratory tract infection, abdominal pain, and proteinuria"}, {"measurement": "AEs reported by subjects", "setting": "[7]; 2 years", "value": 92, "unit": "%"}, {"measurement": "subjects discontinuing treatment due to AEs (number)", "setting": "[7]; 2 years", "value": 41}, {"measurement": "subjects discontinuing treatment due to AEs (percent)", "setting": "[7]; 2 years", "value": 12, "unit": "%"}, {"measurement": "subjects withdrew from the study", "setting": "[7]; 2 years", "value": 21, "unit": "%"}]}
